In US9499493B2, “2,4-pyrimidinediamine compounds and their uses” (Rigel Pharmaceuticals, Inc., priority 2002, dated 2016):
Counter-ions that a name gives are not always drawn.

Legend:
[1] = test system: cultured human mast cells (CHMC); assay: CHMC low cell density IgE activation: tryptase assay; assay type: cell-based; conditions: anti-IgE
How it was run: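 Low-density CHMC assay: donor-adjusted 1000-1500 cells/well, MT buffer, 1 hr 37° C preincubation; anti-IgE stimulus 30 min 37° C versus MT-only controls; supernatant tryptase by substrate, 30 min RT.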

[2] = test system: cultured human mast cells (CHMC); assay: CHMC low cell density ionomycin activation: tryptase assay; assay type: cell-based

Compound	IC50 [1]	IC50 [2]	further results
CN1CCN(C(=O)CNc2cccc(Nc3ncc(F)c(Nc4ccc5c(c4)OCCO5)n3)c2)CC1 [R950194, N4-(3,4-Ethylenedioxyphenyl)-5-fluoro-N2-[3-(N—(N-methyl)-piperazino)carbonylmethyleneaminophenyl]-2,4-pyrimidinediamine]	2040 nM	> 10000 nM	–
O=C(CNc1cccc(Nc2ncc(F)c(Nc3ccc4c(c3)OCCO4)n2)c1)N1CCNCC1 [R950197, N4-(3,4-Ethylenedioxyphenyl)-5-fluoro-N2-[3-(N-piperazino)carbonylmethyleneaminophenyl]-5-fluoro-2,4-pyrimidinediamine]	531 nM	> 10000 nM	–
O=C(CNc1cccc(Nc2ncc(F)c(Nc3ccc4c(c3)OCCO4)n2)c1)NCCN1CCOCC1 [R950200, N4-(3,4-Ethylenedioxyphenyl)-5-fluoro-N2-[3-(N-2-morpholinoethyleneamino)carbonylmethyleneaminophenyl]-2,4-pyrimidinediamine]	245 nM	> 10000 nM	–
OCCNc1cccc(Nc2ncc(F)c(Nc3ccc4c(c3)OCCO4)n2)c1 [R950208, N4-(3,4-Ethylenedioxyphenyl)-5-fluoro-N2-[3-(hydroxyethyleneamino)phenyl]-2,4-pyrimidinediamine]	267 nM	> 10000 nM	–
CCOC(=O)CNc1cccc(Nc2ncc(F)c(Nc3cccc(O)c3)n2)c1 [R950216]	–	–	IC50 ([1]; Homo sapiens, Mast cell): 327 nM; IC50 ([2]; Homo sapiens, Mast cell): > 10000 nM
O=C(CNc1cccc(Nc2ncc(F)c(Nc3cccc(O)c3)n2)c1)N1CCNCC1 [R950222, 5-Fluoro-N4-(3-hydroxyphenyl)-N2-[3-(N-piperazino)carbonylmethyleneaminophenyl]-2,4-pyrimidinediamine]	865 nM	> 10000 nM	–
O=C(CNc1cccc(Nc2ncc(F)c(Nc3cccc(O)c3)n2)c1)NCCN1CCOCC1 [R950226]	1370 nM	> 10000 nM	–
O=C(CNc1cccc(Nc2ncc(F)c(Nc3cccc(NCCO)c3)n2)c1)NCCO [R950231, 5-Fluoro-N4-[3-(2-hydroxyethylamino)phenyl]-N2-[3-[N-(2-hydroxyethylamino)]carbonylmethyleneaminophenyl]-2,4-pyrimidinediamine]	1970 nM	> 10000 nM	–
CNCCNC(=O)CNc1cccc(Nc2ncc(F)c(Nc3cccc(NCCO)c3)n2)c1 [R950234, 5-Fluoro-N4-[3-(2-hydroxyethylamino)phenyl]-N2-[3-[N-(2-methylamino)ethylamino]carbonylmethyleneaminophenyl]-2,4-pyrimidinediamine]	10000 nM	> 10000 nM	–
O=C(CNc1cccc(Nc2ncc(F)c(Nc3cccc(NCCO)c3)n2)c1)N1CCOCC1 [R950236, 5-Fluoro-N4-[3-(2-hydroxyethylamino)phenyl]-N2-[3-(N-morpholino)carbonylmethyleneaminophenyl]-2,4-pyrimidinediamine]	955 nM	> 10000 nM	–
CN(C)CCCNC(=O)CNc1cccc(Nc2ncc(F)c(Nc3cccc(NCCO)c3)n2)c1 [R950237, N2-[3-(3-N,N-Dimethylaminopropyl)aminocarbonylmethyleneaminophenyl]-5-fluoro-N4-[3-(2-hydroxyethylamino)phenyl]-2,4-pyrimidinediamine]	> 10000 nM	> 10000 nM	–
O=C(CNc1cccc(Nc2ncc(F)c(Nc3cccc(NCCO)c3)n2)c1)NCCN1CCOCC1 [R950239, 5-Fluoro-N4-[3-(2-hydroxyethylamino)phenyl]-N2-[3-(N-morpholinoethyleneamino)carbonylmethyleneaminophenyl]-2,4-pyrimidinediamine]	2060 nM	> 10000 nM	–
O=C(CNc1cccc(Nc2ncc(F)c(Nc3cccc(NCCO)c3)n2)c1)N1CCNCC1 [R950241, N4-[3-(2-Hydroxyethyleamino)phenyl]-N2-[3-(N-piperazino)-carbonylmethyleneaminophenyl]-5-fluoro-2,4-pyrimidinediamine]	3280 nM	> 10000 nM	–
CNC(=O)COc1cccc(Nc2ncc(F)c(Nc3cccc(N)c3)n2)c1 [R950262, N4-(3-Aminophenyl)-5-fluoro-N2-[3-(N-methylamino)carbonylmethyleneoxyphenyl]-2,4-pyrimidinediamine HCl salt]	–	–	IC50 ([1]; HCl salt): 285 nM; IC50 ([2]; HCl salt): > 10000 nM
CNC(=O)COc1cccc(Nc2ncc(F)c(Nc3cccc(N)c3)n2)c1 [R950263, N4-(3-Aminophenyl)-5-fluoro-N2-[3-(N-methylamino)carbonylmethyleneoxyphenyl]-2,4-pyrimidinediamine]	284 nM	3300 nM	–
CNC(=O)COc1cccc(Nc2ncc(F)c(Nc3cccc(N(C)C)c3)n2)c1 [R950264, N4-(3-Bis-N-methylaminophenyl)-5-fluoro-N2-[3-(N-methylamino)carbonylmethyleneoxyphenyl]-2,4-pyrimidinediamine]	198 nM	> 10000 nM	–
CNC(=O)COc1cccc(Nc2ncc(F)c(Nc3cccc(NC)c3)n2)c1 [R950267, N4-(3-N-Methylaminophenyl)-5-fluoro-N2-[3-(N-methylamino)carbonylmethyleneoxyphenyl]-2,4-pyrimidinediamine]	180 nM	> 10000 nM	–
CCOC(=O)COc1cccc(Nc2ncc(F)c(Nc3ccc(O)c(C(=O)O)c3)n2)c1 [R950290, N4-(3-Carboxy-4-hydroxyphenyl)-5-fluoro-N2-[3-ethoxycarbonylmethyleneoxyphenyl]-2,4-pyrimidinediamine]	> 10000 nM	> 10000 nM	–
O=C(O)COc1cccc(Nc2ncc(F)c(Nc3ccc(O)c(C(=O)O)c3)n2)c1 [R950291, N4-(3-Carboxy-4-hydroxyphenyl)-5-fluoro-N2-[3-carboxymethyleneoxyphenyl]-2,4-pyrimidinediamine]	> 10000 nM	> 10000 nM	–

Further lines, with some results ahead:

IC50 [1]	IC50 [2]	Compound	further results
244 nM	> 10000 nM	NC(=O)CNc1cccc(Nc2ncc(F)c(Nc3ccc4c(c3)OCCO4)n2)c1 [R950192, N2-[3-(N-Amino)carbonylmethyleneaminophenyl]-N4-(3,4-ethylenedioxyphenyl)-5-fluoro-2,4-pyrimidinediamine]	–
610 nM	> 10000 nM	O=C(CNc1cccc(Nc2ncc(F)c(Nc3ccc4c(c3)OCCO4)n2)c1)N1CCOCC1 [R950193, N4-(3,4-Ethylenedioxyphenyl)-5-fluoro-N2-[3-(N-morpholino)carbonylmethyleneaminophenyl]-2,4-pyrimidinediamine]	–
2200 nM	> 10000 nM	CNCCNC(=O)CNc1cccc(Nc2ncc(F)c(Nc3ccc4c(c3)OCCO4)n2)c1 [R950196, N4-(3,4-Ethylenedioxyphenyl)-5-fluoro-N2-[3-(N-methylamino)ethyleneaminocarbonylmethyleneaminophenyl]-2,4-pyrimidinediamine]	–
406 nM	> 10000 nM	O=C(CNc1cccc(Nc2ncc(F)c(Nc3ccc4c(c3)OCCO4)n2)c1)NCCNCc1ccccc1 [R950198, N2-[3-(N-Benzylamino)ethyleneaminocarbonylmethyleneaminophenyl]-N4-(3,4-ethylenedioxyphenyl)-5-fluoro-2,4-pyrimidinediamine]	–
408 nM	> 10000 nM	O=C(CNc1cccc(Nc2ncc(F)c(Nc3ccc4c(c3)OCCO4)n2)c1)N(CCO)CCO [R950199, N2-[3-(N,N′-Bis(2-N-hydroxyethyl)amino)carbonylmethyleneaminophenyl]-N4-(3,4-ethylenedioxyphenyl)-5-fluoro-2,4-pyrimidinediamine]	–
261 nM	> 10000 nM	CSc1nc2ccc(Nc3ncc(F)c(Nc4ccc5c(c4)OCCO5)n3)cc2s1 [R950201, N4-(3,4-Ethylenedioxyphenyl)-5-fluoro-N2-[2-(methylthio)-1,3-benzothiaz-6-yl]-2,4-pyrimidinediamine]	–
3220 nM	> 10000 nM	CSc1nc2ccc(Nc3ncc(F)c(Nc4ccc5nc(SC)sc5c4)n3)cc2s1 [R950202, N2,N4-Bis[2-(methylthio)-1,3-benzothiaz-6-yl]-5-fluoro-2,4-pyrimidinediamine]	–
409 nM	> 10000 nM	CCOC(=O)CNc1cccc(Nc2ncc(F)c(Nc3cccc(O)c3)n2)c1 [R950215, N2-(Ethoxycarbonylmethyleneaminophenyl)-5-fluoro-N4-(3-hydroxyphenyl)-2,4-pyrimidinediamine]	–
636 nM	> 10000 nM	O=C(CNc1cccc(Nc2ncc(F)c(Nc3cccc(O)c3)n2)c1)N1CCOCC1 [R950221, 5-Fluoro-N4-(3-hydroxyphenyl)-N2-[3-(N-morpholino)carbonylmethyleneaminophenyl]-2,4-pyrimidinediamine]	–
763 nM	> 10000 nM	CN1CCN(C(=O)CNc2cccc(Nc3ncc(F)c(Nc4cccc(O)c4)n3)c2)CC1 [R950223, 5-Fluoro-N4-(3-hydroxyphenyl)-N2-[3-[N—(N-methyl)piperazino]carbonylmethyleneaminophenyl]-2,4-pyrimidinediamine]	–
980 nM	> 10000 nM	CCOC(=O)CNc1cccc(Nc2ncc(F)c(Nc3cccc(NCCO)c3)n2)c1 [R950229, N2-(Ethoxycarbonylmethyleneaminophenyl)-5-fluoro-N4-[3-(2-hydroxyethylamino)phenyl]-2,4-pyrimidinediamine]	–
4090 nM	> 10000 nM	O=C(CNc1cccc(Nc2ncc(F)c(Nc3cccc(NCCO)c3)n2)c1)NCCNCc1ccccc1 [R950235, N2-[3-[N-(2-N-Benzylamino)ethylamino]carbonylmethyleneaminophenyl]-5-fluoro-N4-[3-(2-hydroxyethylamino)phenyl]-2,4-pyrimidinediamine]	–
1770 nM	> 10000 nM	CN1CCN(C(=O)CNc2cccc(Nc3ncc(F)c(Nc4cccc(NCCO)c4)n3)c2)CC1 [R950240, N4-[3-(2-Hydroxyethyleamino)phenyl]-N2-[3-(N—(N-methyl)-piperazino)carbonylmethyleneaminophenyl]-5-fluoro-2,4-pyrimidinediamine]	–
697 nM	> 10000 nM	O=[N+]([O-])c1cccc(Nc2nc(Nc3ccc4c(c3)NCCO4)ncc2F)c1 [R950253]	–
